Test results published in US11203600B2 (Denali Therapeutics Inc., priority 2017, dated 2021).

Target: GST-hRIPK1 (8-327) (Homo sapiens (Human), UniProt Q13546)
Assay: Fluorescent Polarization Binding (FP Binding) assay, RIPK1
Conditions: 10 nM GST-hRIPK1 (8-327), 5 nM fluorescent-labeled ligand, RT, 30 min, mean of at least two independent experiments
Experimental: Fluorescent Polarization Binding (FP Binding) assay (Berger S. B. et al. (2015) Cell Death Discovery, 1: 15009; Maki J. L. et al. (2012) Anal Biochem., 427(2): 164-174) was performed in polystyrene low volume 384-well black plate, at RT in a final volume of 10.1 μl/well using 10 nM of GST-hRIPK1 (8-327) enzyme and 5 nM of fluorescent-labeled ligand (14-(2-{[3-({2-{[4-(cyanomethyl)phenyl]amino]-6-[(5-cyclopropyl-1H-pyrazol-3-yl)amino]-4-pyrimidinyl}amino) propyl}amino}-2-oxoethyl)-16,16,18,18-tetramethyl-6,7,7a,8a,9,10,16,18-octahydrobenzo [2″,3″]indolizino[8″,7″:5′,6′]pyrano [3′,2′:3,4]pyrido[1,2-a]indo1-5-ium-2-sulfonate.
Test compounds were serially diluted in DMSO at 100 fold final concentrations in the assay (1% DMSO final). In each well of a 384-well Plate were dispensed 0.1 μL of compound solution (or DMSO for controls) followed by 5 μL of GST-hRIPK1 (8-327) at twice the final concentrations in assay buffer (50 mM HEPES pH 7.5, 10 mM NaCl, 50 mM MgCl2, 0.02% CHAPS, 0.5 mM DTT and 0.01% Pluronic F127). For negative control the enzyme addition was replaced by assay buffer only.
After addition of 5 μL of fluorescentlabeled ligand at twice the final concentrations in assay buffer, the plate was incubated at RT for […]. At the end, the binding was measured as FP value with the Envision (PerkinElmer) plate reader using filter for an excitation λ=531 nm FP and an emission λ=595 nm FP (S & P-pol). GST-hRIPK1 (8-327) enzyme was produced via Baculovirus expression.
Test compound inhibition was expressed as percent inhibition of internal assay controls. For concentration response curves, normalized data is fit and IC50 determined using XL-fit (IDBS) for Excel. The IC50 values were averaged to determine a mean value, for a minimum of two independent experiments. Results are shown in Table 2 (RIPK1 IC50) values: +++=0.1 nM<IC50<100 nM; ++=100 nM<IC50<1 μM; +=1 μM<IC50).

GST-hRIPK1 (8-327), sequence (Q13546 8-327): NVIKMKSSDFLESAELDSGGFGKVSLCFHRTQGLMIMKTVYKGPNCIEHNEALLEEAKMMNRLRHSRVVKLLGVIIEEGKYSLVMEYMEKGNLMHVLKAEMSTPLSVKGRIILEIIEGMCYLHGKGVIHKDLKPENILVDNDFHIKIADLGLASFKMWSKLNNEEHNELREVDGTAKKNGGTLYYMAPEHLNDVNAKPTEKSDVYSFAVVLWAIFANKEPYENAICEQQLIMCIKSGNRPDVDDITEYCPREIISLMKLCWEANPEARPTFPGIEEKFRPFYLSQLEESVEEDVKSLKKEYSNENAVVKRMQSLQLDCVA

Compound | IC50
COc1nc(N2CCC(C(=O)N3CCOc4c(C#N)cncc4C3)CC2)ncc1F [Example 118, 4-[1-(5-fluoro-4-methoxy-pyrimidin-2-yl)piperidine-4-carbonyl]-3,5-dihydro-2H-pyrido[3,4-f][1,4]oxazepine-9-carbonitrile] | 0.1 to 100 nM
N#Cc1cncc2c1OCCN(C(=O)C1(F)CCN(C(=O)c3cccnc3)CC1)C2 [Example 95, 4-[4-fluoro-1-(pyridine-3-carbonyl)piperidine-4-carbonyl]-3,5-dihydro-2H-pyrido[3,4-f][1,4]oxazepine-9-carbonitrile] | > 1000 nM
N#Cc1cncc2c1OCCN(C(=O)C1(F)CCN(c3ncc(F)c(NC4CC4)n3)CC1)C2 [Example 124, 4-[1-[4-(cyclopropylamino)-5-fluoro-pyrimidin-2-yl]-4-fluoro-piperidine-4-carbonyl]-3,5-dihydro-2H-pyrido[3,4-f][1,4]oxazepine-9-carbonitrile] | 0.1 to 100 nM
CC(C)(C(=O)N1CCOc2c(C#N)cncc2C1)C1CC(F)(F)C1 [Example 84, 4-[2-(3,3-difluorocyclobutyl)-2-methyl-propanoyl]-3,5-dihydro-2H-pyrido[3,4-f][1,4]oxazepine-9-carbonitrile] | 0.1 to 100 nM
C[C@@H]1COc2c(C#N)cncc2CN1C(=O)C(C)(C)CF [Example 77, (3R)-4-(3-fluoro-2,2-dimethyl-propanoyl)-3-methyl-3,5-dihydro-2H-pyrido[3,4-f][1,4]oxazepine-9-carbonitrile] | 0.1 to 100 nM
N#Cc1cncc2c1OCCN(C(=O)C1(F)CCN(c3cnc(F)c(F)c3)CC1)C2 [Example 193, 4-[1-(5,6-difluoro-3-pyridyl)-4-fluoro-piperidine-4-carbonyl]-3,5-dihydro-2H-pyrido[3,4-f][1,4]oxazepine-9-carbonitrile] | > 1000 nM
N#Cc1cncc2c1OCCN(C(=O)C1(F)CCN(c3ncc(F)c(OCC(F)F)n3)CC1)C2 [Example 125, 4-[1-[4-(2,2-difluoroethoxy)-5-fluoro-pyrimidin-2-yl]-4-fluoro-piperidine-4-carbonyl]-3,5-dihydro-2H-pyrido[3,4-f][1,4]oxazepine-9-carbonitrile] | 0.1 to 100 nM
CC1(C(=O)N2CCOc3c(C#N)cncc3C2)CCOCC1 [Example 41, 4-(4-methyltetrahydropyran-4-carbonyl)-3,5-dihydro-2H-pyrido[3,4-f][1,4]oxazepine-9-carbonitrile] | 100 to 1000 nM
COCC(C)(C)C(=O)N1CCOc2c(C#N)cncc2C1 [Example 150, 4-(3-methoxy-2,2-dimethyl-propanoyl)-3,5-dihydro-2H-pyrido[3,4-f][1,4]oxazepine-9-carbonitrile] | 100 to 1000 nM
N#Cc1cncc2c1OCCN(C(=O)C(F)(F)C(F)(F)C(F)(F)F)C2 [Example 143, 4-(2,2,3,3,4,4,4,-heptafluorobutanoyl)-3,5-dihydro-2H-pyrido[3,4-f][1,4]oxazepine-9-carbonitrile] | > 1000 nM
N#Cc1cncc2c1OCCN(C(=O)C1(F)CCN(c3ncc(F)cc3F)CC1)C2 [Example 192, 4-[1-(3,5-difluoro-2-pyridyl)-4-fluoro-piperidine-4-carbonyl]-3,5-dihydro-2H-pyrido[3,4-f][1,4]oxazepine-9-carbonitrile] | 0.1 to 100 nM
N#Cc1cncc2c1OCCN(C(=O)C1CCCN(c3ncc(F)cn3)CC1)C2 (stereo not shown) [Example 92, 4-[1-(5-fluoropyrimidin-2-yl)azepane-4-carbonyl]-3,5-dihydro-2H-pyrido[3,4-f][1,4]oxazepine-9-carbonitrile] | 100 to 1000 nM
CC(C)(CCF)C(=O)N1CCOc2c(C#N)cncc2C1 [Example 60, 4-(4-fluoro-2,2-dimethyl-butanoyl)-3,5-dihydro-2H-pyrido[3,4-f][1,4]oxazepine-9-carbonitrile] | 100 to 1000 nM
N#Cc1cncc2c1OCCN(C(=O)C1(F)CCN(c3ccncn3)CC1)C2 [Example 88, 4-(4-fluoro-1-pyrimidin-4-yl-piperidine-4-carbonyl)-3,5-dihydro-2H-pyrido[3,4-f][1,4]oxazepine-9-carbonitrile] | 100 to 1000 nM
CCOc1nc(N2CCC(F)(C(=O)N3CCOc4c(C#N)cncc4C3)CC2)ncc1F [Example 178, 4-[1-(4-ethoxy-5-fluoro-pyrimidin-2-yl)-4-fluoro-piperidine-4-carbonyl]-3,5-dihydro-2H-pyrido[3,4-f][1,4]oxazepine-9-carbonitrile] | 0.1 to 100 nM
CC1(C(=O)N2CCOc3c(C#N)cncc3C2)CC(F)(F)C1 [Example 138, 4-(3,3-difluoro-1-methyl-cyclobutanecarbonyl)-3,5-dihydro-2H-pyrido[3,4-f][1,4]oxazepine-9-carbonitrile] | 100 to 1000 nM
N#Cc1cncc2c1OCCN(C(=O)C1(F)CCN(c3ccc(F)cn3)CC1)C2 [Example 188, 4-[4-fluoro-1-(5-fluoro-2-pyridyl)piperidine-4-carbonyl]-3,5-dihydro-2H-pyrido[3,4-f][1,4]oxazepine-9-carbonitrile] | 0.1 to 100 nM
CC(C)(C(=O)N1CCOc2cc(C(F)(F)F)ncc2C1)C(F)F [Example 66, 3,3-difluoro-2,2-dimethyl-1-[8-(trifluoromethyl)-3,5-dihydro-2H-pyrido[3,4-f][1,4]oxazepin-4-yl]propan-1-one] | > 1000 nM
CCC(C)C(=O)N1Cc2cncc(C#N)c2OC[C@H]1C (stereo partly drawn) [Example 76, (3R)-3-methyl-4-(2-methylbutanoyl)-3,5-dihydro-2H-pyrido[3,4-f][1,4]oxazepine-9-carbonitrile] | 100 to 1000 nM

Same assay, conditions: GST-hRIPK1 (8-327), mean of at least two independent experiments

Compound | IC50
N#Cc1cncc2c1OCCN(C(=O)C1(O)CCN(c3ncc(F)cn3)CC1F)C2 (stereo not shown) [Example 208, 4-[3-fluoro-1-(5-fluoropyrimidin-2-yl)-4-hydroxy-piperidine-4-carbonyl]-3,5-dihydro-2H-pyrido[3,4-f][1,4]oxazepine-9-carbonitrile] | 100 to 1000 nM
N#Cc1cncc2c1OCCN(C(=O)C1CCN(c3ncc(F)cn3)CC1(F)F)C2 (single isomer, unassigned) [Example 308, 4-[3,3-Difluoro-1-(5-fluoropyrimidin-2-yl)piperidine-4-carbonyl]-3,5-dihydro-2H-pyrido[3,4-f][1,4]oxazepine-9-carbonitrile] | 0.1 to 100 nM
COCCOc1nc(N2CCC(C)(C(=O)N3CCOc4c(C#N)cncc4C3)C(F)(F)C2)ncc1F (stereo not shown) [Example 217, 4-[3,3-difluoro-1-[5-fluoro-4-(2-methoxyethoxy)pyrimidin-2-yl]-4-methyl-piperidine-4-carbonyl]-3,5-dihydro-2H-pyrido[3,4-f][1,4]oxazepine-9-carbonitrile] | 0.1 to 100 nM
CC1(C(=O)N2CCOc3c(C#N)cncc3C2)CCN(c2ncc(F)c(=O)[nH]2)CC1(F)F (stereo not shown) [Example 216, 4-[3,3-difluoro-1-(5-fluoro-6-oxo-1H-pyrimidin-2-yl)-4-methyl-piperidine-4-carbonyl]-3,5-dihydro-2H-pyrido[3,4-f][1,4]oxazepine-9-carbonitrile] | 100 to 1000 nM
N#Cc1cncc2c1OCCN(C(=O)C1CCN(c3ncnc4ccnn34)CC1(F)F)C2 (stereo not shown) [Example 220] | 100 to 1000 nM
CC1(C(=O)N2CCOc3c(C#N)cncc3C2)CCN(c2ncc(F)cn2)CC1F (single isomer, unassigned) [Example 300, 4-[3-Fluoro-1-(5-fluoropyrimidin-2-yl)-4-methyl-piperidine-4-carbonyl]-3,5-dihydro-2H-pyrido[3,4-f][1,4]oxazepine-9-carbonitrile] | 0.1 to 100 nM
